Measured values: patent US11571480B2, “Multi-ligand drug conjugates and uses thereof” (priority 2015, dated 2023)

Key:
Transplanted H460 tumor = experiment: Inhibitory assay of conjugates LDC11A, LDC11B against xenograf tumors; type: in vivo, nude mice; conditions: for Body weight of mice / Tumor size: H460 tumor, 10 mg/kg
Method: (§1) Animal: nude mice, aged 6-8 weeks, female
(§2) 1) human large cell lung cancer cell H460, ovarian cancer cell SKOV3, breast cancer cell line HCC1954, and human breast cancer cell SK-BR-3 were incubated at 37° C., 5% CO2 in IMDM medium containing 10% fetal bovine serum, the cells were passaged every 2-3 days.
(§3) 2) generation of tumors: 7×10^6 tumor cells were subcutaneously injected into the back of nude mice, and the mice were grouped for treatment after the tumor sizes were as large as about 100˜200 mm^3.
(§4) 3) treatment: 3 mice/group, treated with LDC11A, LDC11B, as well as controls MMAE and PBS with doses of 5 and 10 mg/kg every 5 days, three injections.
(§5) 4) the physical performance, body weights and tumor sizes of the animals were monitored. The number of animal death was recorded during the experiment.

Transplanted SKOV3 tumor = experiment: as above; type: in vivo, nude mice; conditions: for Body weight of mice / Tumor size: SKOV3 tumor, 10 mg/kg
Method: as §1, §2, §3, §4, §5

[1] = tested on: Transplanted HCC1954 tumor; experiment: as above; type: in vivo, nude mice; conditions: for Body weight of mice / Tumor size: HCC1954 tumor, 10 mg/kg
Method: as §1, §2, §3, §4, §5

[2] = Cytotoxicity test of conjugate LDC11B; type: cell-based, human; conditions: human, 293A embryonic kidney cells, incubated 15-30 min, then 2-3 days
Method: (§6) Culture medium: RPMI 1640 Medium, no folic acid
(§7) 1) human lung cancer cell H460, ovarian cancer cell SKOV3, human embryonic kidney cell 293A were incubated at 37° C., 5% CO2 in RPMI 1640 medium containing 10% fetal bovine serum, the cells were passaged every 2-3 days.
(§8) 2) human lung cancer cell H460, ovarian cancer cell SKOV3, human embryonic kidney cell 293A were plated at 1×10^3 cells per well (96-well plate) and incubated for 8-12 h at 37° C., 5% CO2.
(§9) 3) Stock solutions of LDC conjugates or control were prepared in PBS solution. 100 μL/well of serially diluted LDC conjugates or control was added to the cells in the plate and incubated for 15-30 min at 37° C., 5% CO2. The culture medium in the wells was then removed by aspiration and the cells were incubated in fresh culture medium without conjugates (150 μL/well) for 2-3 days at 37° C., 5% CO2.
(§10) 4) CellTiter 96® Aqueous One Solution Cell Proliferation Assay (Promega) was added to each well to measure the amount of […] cells, and the plate was incubated in an incubator for 1 h at 37° C., 5% CO2.
(§11) 5) The plate was read at 490 nm on a microplate reader, and the cell survivals were compared for cells with or without the treatment of LDC conjugates. The LDC drug concentrations that are required for 50% cell death (IC50 values) were determined.

[3] = tested on: human lung cancer cell H1299; experiment: Cytotoxicity test of conjugate LDC10H; type: cell-based; conditions: H1299, incubated 15-30 min, then 2-3 days
Method: as §6
(§12) 1) human lung cancer cell H1299, ovarian cancer cell SKOV3, breast cancer cell line HCC1954, and human lung cancer cell H460 were incubated at 37° C., 5% CO2 in RPMI 1640 medium containing 10% fetal bovine serum, the cells were passaged every 2-3 days.
(§13) 2) human lung cancer cell H1299, ovarian cancer cell SKOV3, breast cancer cell line HCC1954, and human lung cancer cell H460 were plated at 1×10^3 cells per well (96-well plate) and incubated for 8-12 h at 37° C., 5% CO2.
as §9, §10
(§14) 5) the plate was read at 490 nm on a microplate reader, and the cell survivals were compared for cells with or without the treatment of LDC conjugates. The LDC drug concentrations that are required for 50% cell death (IC50 values) were determined.

[4] = tested on: human lung cancer cell H460; experiment: Cytotoxicity test of conjugate LDC10H; type: cell-based; conditions: H460, incubated 15-30 min, then 2-3 days
Method: as §6, §12, §13, §9, §10, §14

[5] = tested on: human lung cancer cell H1299; experiment: Cytotoxicity test of conjugate LDC10B; type: cell-based; conditions: H1299, Incubation Time 30 min
Method: as §6
(§15) 1) human nasopharyngeal cancer cell line KB, melanoma cell line A375, human lung cancer cell H1299, chronic myeloid leukemia cell line K562, human lung cancer cell H460, ovarian cancer cell SKOV3, breast cancer cell line HCC1954, human gastric cancer cell N87, and human breast cancer cell SK-BR-3 were incubated at 37° C., 5% CO2 in RPMI 1640 medium containing 10% fetal bovine serum, the cells were passaged every 2-3 days.
(§16) 2) human nasopharyngeal cancer cell line KB, melanoma cell line A375, human lung cancer cell H1299, chronic myeloid leukemia cell line K562, human lung cancer cell H460, ovarian cancer cell SKOV3, breast cancer cell line HCC1954, human gastric cancer cell N87, and human breast cancer cell SK-BR-3 were plated at 1×10^3 cells per well (96-well plate) and incubated for 8-12 h at 37° C., 5% CO2.
(§17) 3) Stock solutions of LDC conjugates or controls were prepared in PBS solution. 100 μL/well of serially diluted LDC conjugates or controls was added to the test cells in the plates and incubated for 15-30 min at 37° C., 5% CO2. The culture medium in the wells was then removed by aspiration and the test cells were incubated in fresh culture medium without conjugates (150 μL/well) for 2-3 days at 37° C., 5% CO2.
(§18) 4) CellTiter 96® Aqueous One Solution Cell Proliferation Assay (Promega) was added to each well to measure the amount of […] cells, and each plate was incubated in an incubator for 1 h at 37° C., 5% CO2.
(§19) 5) Each plate was read at 490 nm on a microplate reader, and the cell survivals were compared for test cells with or without the treatment of LDC conjugates. The LDC drug concentrations that are required for 50% cell death (IC50 values) were determined.

[6] = tested on: human nasopharyngeal cancer cell line KB; experiment: Cytotoxicity test of conjugate LDC10B; type: cell-based; conditions: Incubation Time 15 min
Method: as §6, §15, §16, §17, §18, §19

[7] = tested on: human breast cancer cell SK-BR-3; experiment: Cytotoxicity test of conjugate LDC10B; type: cell-based; conditions: SK-BR-3, Incubation Time 30 min
Method: as §6, §15, §16, §17, §18, §19

[8] = tested on: human gastric cancer cell N87; experiment: Cytotoxicity test of conjugate LDC10B; type: cell-based; conditions: N87, Incubation Time 30 min
Method: as §6, §15, §16, §17, §18, §19

melanoma cell line A375 [9] = experiment: Cytotoxicity test of conjugate LDC10B; type: cell-based; conditions: A375, Incubation Time 15 min
Method: as §6, §15, §16, §17, §18, §19

[10] = tested on: human lung cancer cell H460; experiment: Cytotoxicity test of conjugate LDC10B; type: cell-based; conditions: H460, Incubation Time 30 min
Method: as §6, §15, §16, §17, §18, §19

[11] = tested on: chronic myeloid leukemia cell line K562; experiment: Cytotoxicity test of conjugate LDC10B; type: cell-based; conditions: K562, Incubation Time 30 min
Method: as §6, §15, §16, §17, §18, §19

[12] = tested on: human lung cancer cell H460; experiment: Cytotoxicity test of conjugate LDC11B; type: cell-based; conditions: H460, incubated 15-30 min, then 2-3 days
Method: as §6, §7, §8, §9, §10, §11

[13] = tested on: human embryonic kidney cell 293A; experiment: Cytotoxicity test of conjugate LDC11B; type: cell-based; conditions: incubated 15-30 min, then 2-3 days
Method: as §6, §7, §8, §9, §10, §11

[14] = tested on: human nasopharyngeal cancer cell line KB; experiment: Cytotoxicity test of conjugate LDC13B; type: cell-based; conditions: KB, incubated 15-30 min, then 2-3 days
Method: as §6
1) human nasopharyngeal cancer cell line KB, human colon carcinoma HCT-116, human prostatic cancer cell PC-3, human gastric cancer cell line GTL-16, human endometrial cancer cell HEC-1A, and human gastric cancer cell N87 were incubated at 37° C., 5% CO2 in RPMI 1640 medium containing 10% fetal bovine serum, the cells were passaged every 2-3 days.
2) human nasopharyngeal cancer cell line KB, human colon carcinoma HCT-116, human prostatic cancer cell PC-3, human gastric cancer cell line GTL-16, human endometrial cancer cell HEC-1A, and human gastric cancer cell N87 were plated at 1×10^3 cells per well (96-well plate) and incubated for 8-12 h at 37° C., 5% CO2.
as §9, §10, §14

[15] = tested on: breast cancer cell line HCC1954; experiment: Cytotoxicity test of conjugate LDC10B; type: cell-based, human; conditions: HCC1954, Incubation Time 30 min
Method: as §6, §15, §16, §17, §18, §19

[16] = tested on: ovarian cancer cell SKOV3; experiment: Cytotoxicity test of conjugate LDC10B; type: cell-based, human; conditions: SKOV3, Incubation Time 30 min
Method: as §6, §15, §16, §17, §18, §19

[17] = tested on: human nasopharyngeal cancer cell line KB; experiment: Cytotoxicity test of conjugate LDC1013; type: cell-based; conditions: incubated 15-30 min, then 2-3 days
Method: as §6
(§20) 1) human nasopharyngeal cancer cell line KB, melanoma cell line A375, and human lung cancer cell H460 were incubated at 37° C., 5% CO2 in RPMI 1640 medium containing 10% fetal bovine serum, the cells were passaged every 2-3 days.
(§21) 2) human nasopharyngeal cancer cell line KB, melanoma cell line A375, and human lung cancer cell H460 were plated at 1×10^3 cells per well (96-well plate) and incubated for 8-12 h at 37° C., 5% CO2.
as §9, §10, §14

melanoma cell line A375 [18] = experiment: Cytotoxicity test of conjugate LDC1013; type: cell-based; conditions: A375, incubated 15-30 min, then 2-3 days
Method: as §6, §20, §21, §9, §10, §14

[19] = tested on: human lung cancer cell H460; experiment: Cytotoxicity test of conjugate LDC1013; type: cell-based; conditions: H460, incubated 15-30 min, then 2-3 days
Method: as §6, §20, §21, §9, §10, §14

[20] = tested on: breast cancer cell line HCC1954; experiment: Cytotoxicity test of conjugate LDC10H; type: cell-based, human; conditions: HCC1954, incubated 15-30 min, then 2-3 days
Method: as §6, §12, §13, §9, §10, §14

[21] = tested on: ovarian cancer cell SKOV3; experiment: Cytotoxicity test of conjugate LDC10H; type: cell-based, human; conditions: SKOV3, incubated 15-30 min, then 2-3 days
Method: as §6, §12, §13, §9, §10, §14

[22] = tested on: ovarian cancer cell SKOV3; experiment: Cytotoxicity test of conjugate LDC11B; type: cell-based, human; conditions: SKOV3, incubated 15-30 min, then 2-3 days
Method: as §6, §7, §8, §9, §10, §11

CC[C@H](C)[C@@H]([C@@H](CC(=O)N1CCC[C@H]1[C@H](OC)[C@@H](C)C(=O)N[C@H](C)[C@@H](O)c1ccccc1)OC)N(C)C(=O)[C@@H](NC(=O)[C@H](C(C)C)N(C)C(=O)OCc1ccc(NC(=O)[C@H](CCCNC(N)=O)NC(=O)[C@@H](NC(=O)CCCCCN2C(=O)CC(SC[C@H](NC(=O)CNC(=O)[C@@H]3CCCN3C(=O)[C@H](CCCNC(=N)N)NC(=O)[C@H](CC(C)C)NC(=O)CNC(=O)[C@H](Cc3ccc(O)cc3)NC(=O)[C@H](CO)NC(=O)[C@H](Cc3c[nH]c4ccccc34)NC(=O)[C@H](Cc3c[nH]cn3)NC(=O)[C@H](CCC(=O)O)NC(=O)CC[C@H](NC(=O)c3ccc(NCC4=Nc5c([nH]c(N)nc5=O)NC4)cc3)C(=O)O)C(=O)O)C2=O)C(C)C)cc1)C(C)C (stereo partly drawn) [LDC11B]
tumor growth (in words) (Transplanted H460 tumor; H460, three injections at 10 mg/kg): can inhibit the tumor growth
Body weight of mice (Transplanted H460 tumor; Before Injection): 21.85 g
Tumor size (Transplanted H460 tumor; Before Injection): 225.32 mm^3
Body weight of mice (Transplanted H460 tumor; Five days after Injection 1): 22.2 g
Tumor size (Transplanted H460 tumor; Five days after Injection 1): 108.73 mm^3
Body weight of mice (Transplanted H460 tumor; Five days after Injection 2): 22.55 g
Tumor size (Transplanted H460 tumor; Five days after Injection 2): 0 mm^3
Body weight of mice (Transplanted H460 tumor; Five days after Injection 3): 22.38 g
Tumor size (Transplanted H460 tumor; Five days after Injection 3): 0 mm^3
tumor growth (in words) (Transplanted SKOV3 tumor; SKOV3, three injections at 10 mg/kg): can inhibit the tumor growth
Body weight of mice (Transplanted SKOV3 tumor; Before Injection): 22.11 g
Tumor size (Transplanted SKOV3 tumor; Before Injection): 169.22 mm^3
Body weight of mice (Transplanted SKOV3 tumor; Five days after Injection 1): 24.28 g
Tumor size (Transplanted SKOV3 tumor; Five days after Injection 1): 137.66 mm^3
Body weight of mice (Transplanted SKOV3 tumor; Five days after Injection 2): 23.6 g
Tumor size (Transplanted SKOV3 tumor; Five days after Injection 2): 76.13 mm^3
Body weight of mice (Transplanted SKOV3 tumor; Five days after Injection 3): 24.92 g
Tumor size (Transplanted SKOV3 tumor; Five days after Injection 3): 27.84 mm^3
tumor growth (in words) ([1]; HCC1954, three injections at 10 mg/kg): can inhibit the tumor growth
Body weight of mice ([1]; Before Injection): 22.76 g
Tumor size ([1]; Before Injection): 218.76 mm^3
Body weight of mice ([1]; Five days after Injection 1): 22.56 g
Tumor size ([1]; Five days after Injection 1): 87.51 mm^3
Body weight of mice ([1]; Five days after Injection 2): 23.15 g
Tumor size ([1]; Five days after Injection 2): 0 mm^3
Body weight of mice ([1]; Five days after Injection 3): 23.48 g
Tumor size ([1]; Five days after Injection 3): 0 mm^3
IC50 [2]: 524 nM

Folate-(PEG)3-MC-Val-Cit-PAB-MMAE [LDC1]
IC50 [3]: 186 nM
IC50 [4]: 137 nM
IC50 [5]: 262 nM
IC50 [6]: 15000 nM
IC50 [7]: 98.2 nM
IC50 [8]: 239 nM
IC50 (melanoma cell line A375 [9]): 10000 nM
IC50 [10]: 192 nM
IC50 [11]: 93.1 nM
IC50 [12]: 526 nM
IC50 [13]: 715 nM
IC50 [14]: 65 nM
IC50 [15]: 94.4 nM
IC50 [16]: 102 nM
IC50 [17]: 4000 nM
IC50 (melanoma cell line A375 [18]): 37000 nM
IC50 [19]: 9400 nM
IC50 [20]: 77.9 nM
IC50 [21]: 201 nM
IC50 [22]: 295 nM
